Laboratory results as given in US20110015069A1, “Herbicidal Compositions Comprising Pyroxasulfone IV” (BASF SE, priority 2008, published 2011).
Where two headings read alike, the source gives them in different places.

Tests used:
Thlaspi arvense (THLAR) = assay: greenhouse pre-emergence herbicidal activity; type: in vivo; settings: read-out: observed % activity; for inhibition at 6.25 g/ha: pyroxasulfone 6.25 g ai/ha; for inhibition at 12.5 g/ha: pyroxasulfone 12.5 g ai/ha; for inhibition at 25 g/ha: pyroxasulfone 25 g ai/ha; for inhibition at 50 g/ha: pyroxasulfone 50 g ai/ha; for inhibition at 47 g/ha: metazachlor 47 g ai/ha; for inhibition at 94 g/ha: metazachlor 94 g ai/ha; for inhibition at 187 g/ha: metazachlor 187 g ai/ha
From the text: (§1) For the pre-emergence treatment, directly after sowing the active compounds, which had been suspended or emulsified in water, were applied by means of finely distributed nozzles. The containers were irrigated gently to promote germination and growth and subsequently covered with transparent plastic hoods until plant had rooted. This cover caused uniform germination of the tests plants, unless this was adversely affected by active compounds.
(§2) The respective herbicides A and/or safener were formulated as 10% by weight strength emulsion concentrate and introduced to the spray liquor with the amount of solvent system used for applying the active compound. In the examples, the solvent used was water. Herbicide B and/or safener were used as commercially available formulations and introduced to the spray liquor with the amount of solvent system used for applying the active compound. In the examples, the solvent used was water.
(§3) Metazachlor was used as a commercial aqueous suspension concentrate having an active ingredient concentration of 500 g/l.
(§4) The test period extended over 21 days. During this time, the plants were tended, and their response to the treatments with active compound was evaluated.
(§5) The evaluation for the damage caused by the chemical compositions was carried out using a scale from 0 to 100%, compared to the untreated control plants. Here, 0 means no damage and 100 means complete destruction of the plants.
(§6) The value E, which is to be expected if the activity of the individual compounds is just additive, was calculated using the method of S. R. Colby (1967) “Calculating synergistic and antagonistic responses of herbicide combinations”, Weeds 15, p. 22 ff.
(§7) where X=effect in percent using herbicide A at an application rate a; • Y=effect in percent using herbicide B at an application rate b; • E=expected effect (in %) of A+B at application rates a+b.
(§8) If the value observed in this manner is higher than the value E calculated according to Colby, a synergistic effect is present.

[1] = system: Matricaria inermis (MATIN); assay: greenhouse pre-emergence herbicidal activity; type: in vivo; settings: read-out: observed % activity; for inhibition at 6.25 g/ha: pyroxasulfone 6.25 g ai/ha; for inhibition at 25 g/ha: pyroxasulfone 25 g ai/ha; for inhibition at 47 g/ha: metazachlor 47 g ai/ha
From the text: as §1, §2, §3, §4, §5, §6, §7, §8

Galium aparine (GALAP) = assay: greenhouse pre-emergence herbicidal activity; type: in vivo; settings: read-out: observed % activity; for inhibition at 50 g/ha: pyroxasulfone 50 g ai/ha; for inhibition at 47 g/ha: metazachlor 47 g ai/ha
From the text: as §1, §2, §3, §4, §5, §6, §7, §8

[2] = system: Capsella bursa-pastoris (CAPBP); assay: greenhouse pre-emergence herbicidal activity; type: in vivo; settings: read-out: observed % activity; for inhibition at 6.25 g/ha: pyroxasulfone 6.25 g ai/ha; for inhibition at 25 g/ha: pyroxasulfone 25 g ai/ha; for inhibition at 50 g/ha: pyroxasulfone 50 g ai/ha; for inhibition at 47 g/ha: metazachlor 47 g ai/ha; for inhibition at 94 g/ha: metazachlor 94 g ai/ha
From the text: as §1, §2, §3, §4, §5, §6, §7, §8

Bromus inermis (BROIN) = assay: greenhouse pre-emergence herbicidal activity; type: in vivo; settings: read-out: observed % activity; for inhibition at 12.5 g/ha: pyroxasulfone 12.5 g ai/ha; for inhibition at 25 g/ha: pyroxasulfone 25 g ai/ha; for inhibition at 47 g/ha: metazachlor 47 g ai/ha
From the text: as §1, §2, §3, §4, §5, §6, §7, §8

Veronica persica (VERPE) = assay: greenhouse post-emergence herbicidal activity; type: in vivo; settings: 20 DAT
From the text: (§9) For the post-emergence treatment, the test plants were first grown to a height of 3 to 20 cm, depending on the plant habit, and only then treated. Here, the herbicidal compositions were suspended or emulsified in water as distribution medium and sprayed using finely distributing nozzles.
as §2, §3, §4, §5, §6, §7, §8

[3] = system: Matricaria inermis (MATIN); assay: greenhouse post-emergence herbicidal activity; type: in vivo; settings: 20 DAT
From the text: as §9, §2, §3, §4, §5, §6, §7, §8

[4] = system: Capsella bursa-pastoris (CAPBP); assay: greenhouse post-emergence herbicidal activity; type: in vivo; settings: 20 DAT
From the text: as §9, §2, §3, §4, §5, §6, §7, §8

Viola arvensis (VIOAR) = assay: greenhouse post-emergence herbicidal activity; type: in vivo; settings: for inhibition at 25 g/ha / inhibition at 100 g/ha / inhibition at 94 g/ha: Viola arvensis, read-out: observed % activity; for observed activity in % destruction 20 days after treatment: 20 DAT (Table 3)
From the text: as §9, §2, §3, §4, §5, §6, §7, §8

[5] = known from Y. Yamaji et al., 2006; cited from earlier work

## Cn1nc(C(F)(F)F)c(CS(=O)(=O)C2=NOC(C)(C)C2)c1OC(F)F [pyroxasulfone, 3-[5-(difluoromethoxy)-1-methyl-3-(trifluoromethyl)pyrazol-4-ylmethylsulfonyl]-4,5-dihydro-5,5-dimethyl-1,2-oxazole]
Thlaspi arvense (THLAR); 192 h, 8 DAT
  inhibition at 6.25 g/ha: 30%
  inhibition at 12.5 g/ha: 40%
  inhibition at 25 g/ha: 60%
  inhibition at 50 g/ha: 60%
Thlaspi arvense (THLAR); 480 h, 20 DAT
  inhibition at 6.25 g/ha: 20%
  inhibition at 12.5 g/ha: 30%
  inhibition at 25 g/ha: 80%
  inhibition at 50 g/ha: 80%
[1]; 192 h, 8 DAT
  inhibition at 6.25 g/ha: 0%
  inhibition at 25 g/ha: 20%
[1]; 480 h, 20 DAT
  inhibition at 6.25 g/ha: 20%
  inhibition at 25 g/ha: 50%
Galium aparine (GALAP); 192 h, 8 DAT
  inhibition at 50 g/ha: 60%
Galium aparine (GALAP); 480 h, 20 DAT
  inhibition at 50 g/ha: 80%
[2]; 192 h, 8 DAT
  inhibition at 6.25 g/ha: 40%
  inhibition at 25 g/ha: 60%
  inhibition at 50 g/ha: 60%
[2]; 480 h, 20 DAT
  inhibition at 6.25 g/ha: 40%
  inhibition at 25 g/ha: 95%
  inhibition at 50 g/ha: 95%
Bromus inermis (BROIN); 192 h, 8 DAT
  inhibition at 12.5 g/ha: 50%
  inhibition at 25 g/ha: 50%
Bromus inermis (BROIN); 480 h, 20 DAT
  inhibition at 12.5 g/ha: 50%
  inhibition at 25 g/ha: 60%
Veronica persica (VERPE); pyroxasulfone 100 g ai/ha
  observed activity in % destruction 20 days after treatment: 90%
[3]; pyroxasulfone 25 g ai/ha
  observed activity in % destruction 20 days after treatment: 0%
[3]; pyroxasulfone 50 g ai/ha
  observed activity in % destruction 20 days after treatment: 0%
[3]; pyroxasulfone 100 g ai/ha
  observed activity in % destruction 20 days after treatment: 20%
[4]; pyroxasulfone 25 g ai/ha
  observed activity in % destruction 20 days after treatment: 35%
Viola arvensis (VIOAR); 168 h, pyroxasulfone 25 g ai/ha, 7 DAT
  inhibition at 25 g/ha: 0%
Viola arvensis (VIOAR); 168 h, pyroxasulfone 100 g ai/ha, 7 DAT
  inhibition at 100 g/ha: 50%
Viola arvensis (VIOAR); 480 h, pyroxasulfone 25 g ai/ha, 20 DAT
  inhibition at 25 g/ha: 0%
Viola arvensis (VIOAR); 480 h, pyroxasulfone 100 g ai/ha, 20 DAT
  inhibition at 100 g/ha: 65%
Viola arvensis (VIOAR); pyroxasulfone 25 g ai/ha
  observed activity in % destruction 20 days after treatment: 0%
Viola arvensis (VIOAR); pyroxasulfone 100 g ai/ha
  observed activity in % destruction 20 days after treatment: 65%
[5]
  post-emergence activity: poor

## Cc1cccc(C)c1N(Cn1cccn1)C(=O)CCl [metazachlor]
Thlaspi arvense (THLAR); 192 h, 8 DAT
  inhibition at 47 g/ha: 20%
  inhibition at 94 g/ha: 30%
  inhibition at 187 g/ha: 45%
Thlaspi arvense (THLAR); 480 h, 20 DAT
  inhibition at 47 g/ha: 0%
  inhibition at 94 g/ha: 0%
  inhibition at 187 g/ha: 30%
[1]; 192 h, 8 DAT
  inhibition at 47 g/ha: 20%
[1]; 480 h, 20 DAT
  inhibition at 47 g/ha: 35%
Galium aparine (GALAP); 192 h, 8 DAT
  inhibition at 47 g/ha: 30%
Galium aparine (GALAP); 480 h, 20 DAT
  inhibition at 47 g/ha: 35%
[2]; 192 h, 8 DAT
  inhibition at 47 g/ha: 40%
  inhibition at 94 g/ha: 40%
[2]; 480 h, 20 DAT
  inhibition at 47 g/ha: 70%
  inhibition at 94 g/ha: 80%
Bromus inermis (BROIN); 192 h, 8 DAT
  inhibition at 47 g/ha: 35%
Bromus inermis (BROIN); 480 h, 20 DAT
  inhibition at 47 g/ha: 30%
Veronica persica (VERPE); metazachlor 94 g ai/ha
  observed activity in % destruction 20 days after treatment: 60%
Veronica persica (VERPE); metazachlor 187 g ai/ha
  observed activity in % destruction 20 days after treatment: 80%
[3]; metazachlor 187 g ai/ha
  observed activity in % destruction 20 days after treatment: 60%
[3]; metazachlor 750 g ai/ha
  observed activity in % destruction 20 days after treatment: 80%
[4]; metazachlor 94 g ai/ha
  observed activity in % destruction 20 days after treatment: 45%
Viola arvensis (VIOAR); 168 h, metazachlor 94 g ai/ha, 7 DAT
  inhibition at 94 g/ha: 30%
Viola arvensis (VIOAR); 480 h, metazachlor 94 g ai/ha, 20 DAT
  inhibition at 94 g/ha: 0%
Viola arvensis (VIOAR); metazachlor 94 g ai/ha
  observed activity in % destruction 20 days after treatment: 0%
